Patent US6355692B2, “Method of inhibiting formation of infectious microorganisms” (Northeastern Ohio Universities College of Medicine, priority 1998, dated 2002)
Converted amounts (≈) assume the structure as drawn.

Columns and labels:
[1] = system: Escherichia coli; test: Inhibitory concentration on bacteria and yeast in vitro; type: cell-based
[2] = system: cultured cells
[3] = system: Staphylococcus aureus; test: Inhibitory concentration on bacteria and yeast in vitro; type: cell-based
[4] = system: pseudorabies virus; test: microbe, parasite or virus in culture; type: cell-based
[5] = system: Pseudomonas aeruginosa; test: Inhibitory concentration on bacteria and yeast in vitro; type: cell-based
[6] = system: Neisseria gonorrhea; test: Growth inhibition on chocolate agar containing resveratrol; type: cell-based
Procedure: Stock solutions of the resveratrol, obtained from Sigma Chemical Co, St. Louis, Mo. were prepared in 100% ethanol. Different quantities of the stock solution where added to melted chocolate agar which was then poured into a petri dish and allowed to solidify. […] The final concentration of ethanol in the agar was 0.5%. Control plates containing chocolate agar and ethanol at a final concentration of 0.5% were also prepared. Neisseria gonorrhea was obtained from patients diagnosed with gonorrhea. The authenticity of the bacterium was confirmed utilizing standard microbiological techniques of identification. Cultures of the bacterial isolate were inoculated onto fresh plates and then 24 hours later, a suspension was made from isolated colonies. […] Thereafter, the samples were incubated at 37° C. with or without 5% CO2. All samples were visually examined for growth of the bacterium 24 hours later to determine the concentration of resveratol that inhibits growth by 50% (MIC50) as well as the concentration which inhibits any visible growth (MIC100)

[7] = system: Group A Beta Streptococcus; test: Inhibitory concentration on bacteria and yeast in vitro; type: cell-based
[8] = system: Candida albicans; test: as above; type: cell-based
[9] = system: Neisseria meningitidis; test: Growth inhibition on chocolate agar containing resveratrol; type: cell-based
Procedure: Stock solutions of the resveratrol, obtained from Sigma Chemical Co, St. Louis, Mo. were prepared in 100% ethanol. Different quantities of the stock solution where added to melted chocolate agar which was then poured into a petri dish and allowed to solidify. […] The final concentration of ethanol in the agar was 0.5%. Control plates containing chocolate agar and ethanol at a final concentration of 0.5% were also prepared. A culture of Neisseria […] obtained from the American Type Culture Collection. Authenticity of the bacterium was confirmed utilizing standard microbiological techniques of identification. Cultures of the bacterial isolate were inoculated onto fresh plates and then 24 hours later, a suspension was made from isolated colonies. […] Thereafter, the samples were incubated at 37° C. with or without 5% CO2. All samples were visually examined for growth of the bacterium 24 hours later to determine the resveratrol concentration that inhibits growth by 50% (MIC50) and the resveratrol concentration which inhibits any visible growth (MIC100)

[10] = complete inhibition of bacterial growth after 24 hours
[11] = concentrations ranging from 1 μg/ml to 200 μg/ml of solution

Oc1ccc(/C=C/c2cc(O)cc(O)c2)cc1 [resveratrol, 3,5,4′-trihdyroxystilbene]
IC50 ([1]; Escherichia coli, 50% reduction in bacterial growth after 24 hours): > 200 µg/mL
IC100 [1, 10]: >200 µg/mL
growth inhibition [1, 11]: does not inhibit the growth
toxicity to cultured cells [2]: non-toxic to cells
IC50 ([3]; Staphylococcus aureus, 50% reduction in bacterial growth after 24 hours): > 200 µg/mL
IC100 [3, 10]: >200 µg/mL
growth inhibition [3, 11]: does not inhibit the growth
reversibility of effect on pseudorabies virus replication [4]: reversible
inhibition at 50 µg/mL ([4]; Suid alphaherpesvirus 1, Vero, 24 h, read-out: inhibition of formation of infectious virus particles): > 99%
infectious pseudorabies virus particles in cultures ([4]; continuously incubated with 50 μg/ml resveratrol, 72 hours): virtually undetectable
IC50 ([5]; Pseudomonas aeruginosa, 50% reduction in bacterial growth after 24 hours): > 200 µg/mL
IC100 [5, 10]: >200 µg/mL
growth inhibition [5, 11]: does not inhibit the growth
IC50 ([6]; Neisseria, 50% reduction in bacterial growth after 24 hours): 25 µg/mL (≈ 110 µM)
IC100 [6, 10]: 75 µg/mL
IC50 ([7]; Streptococcus, 50% reduction in bacterial growth after 24 hours): > 200 µg/mL
IC100 [7, 10]: >200 µg/mL
growth inhibition [7, 11]: does not inhibit the growth
IC50 ([8]; Candida albicans, 50% reduction in bacterial growth after 24 hours): > 200 µg/mL
IC100 [8, 10]: >200 µg/mL
growth inhibition [8, 11]: does not inhibit the growth
IC50 ([9]; Neisseria meningitidis, 50% reduction in bacterial growth after 24 hours): 100 µg/mL (≈ 438 µM)
IC100 [9, 10]: 125 µg/mL
